Values quoted from earlier work, collected in patent US5744455A (priority 1993, dated 1998).
Where two headings read alike, the source gives them in different places.

Assays:
human tumors = details: single agents
[1] = tested on: doxorubicin cardiotoxicity; details: non-cancer-bearing animals
[2] = tested on: doxorubicin-induced toxicity; details: humans and other species
[3] = not given; remark: listed apart in the source
[4] = tested on: daunorubicin cardiotoxicity; details: ICRF 187 given prior to daunorubicin
[5] = tested on: chronic daunorubicin cardiotoxicity; details: 30 minutes prior to daunorubicin, 12.5 and 25 mg/kg
[6] = tested on: chronic cardiotoxicity induced by Adriamycin; details: ICRF 187 12.5 mg/kg 30 minutes prior to Adriamycin 1.0 mg/kg
heart lesions = details: doxorubicin and ICRF 187
[7] = not given; remark: listed apart in the source
[8] = tested on: cardiac glutathione peroxidase
[9] = not given; remark: listed apart in the source
myocardial lesions = details: doxorubicin alone

SMILES: CC(CN1CC(=O)NC(=O)C1)N1CC(=O)NC(=O)C1 (racemic) [ICRF 159, (±)-1,2-bis(3,5-dioxopiperazinyl-1-yl)propane]
- anti-tumor effect as single agent (human tumors): little effect against human tumors
- solubility: low solubility
- doxorubicin cardioprotection [1]: shown promise

SMILES: Cc1c(C)c2c(c(C)c1O)CCC(C)(CCCC(C)CCCC(C)CCCC(C)C)O2 (stereo not drawn) [Alpha-tocopherol]
- cardioprotection against doxorubicin-induced toxicity [2]: did not result in significant cardioprotection

SMILES: O=C(O)CN(CCN(CC(=O)O)CC(=O)O)CC(=O)O [EDTA, ethylenediaminetetraacetic acid]
- erythrocyte ghost destruction by iron-doxorubicin complex (erythrocyte ghost): can prevent erythrocyte ghost destruction

SMILES: O=c1[nH]cc(F)c(=O)[nH]1 [Fluorouracil, fluorouracil]
- oral absorption [3]: very poor absorption

SMILES: C[C@@H](CN1CC(=O)NC(=O)C1)N1CC(=O)NC(=O)C1 [ICRF 187, (+)-1,2-bis(3,5-dioxopiperazinyl-1-yl)propane]
- daunorubicin lethality and cardiotoxicity [4]: a reduction of lethality and cardiotoxicity
- chronic daunorubicin cardiotoxicity [5]: reduced
- Adriamycin-induced chronic cardiotoxicity [6]: prevented cardiotoxicity in all treated animals
- dogs with no abnormalities in the hearts (heart lesions): three of six
- dogs with minimal heart lesions (heart lesions; six dogs): three
- SGOT and SGPT, vomiting, alopecia ([7]; 1500 mg/m^2): mild elevations of SGOT (serum glutamate-oxalate transaminase) and SGPT (serum glutamic-pyruvic transaminase), occasional vomiting and some alopecia
- predominant adverse effects ([7]; 1500 mg/m^2): leukopenia and thrombocytopenia
- dose limiting toxicity ([7]; administered three times daily, every three days, only chemotherapeutic agent): 1500 mg/m^2
- dose limiting toxicity ([7]; daily, for three consecutive days every three weeks): 1500 mg/m^2
- anti-tumor effect as single agent (human tumors): little effect against human tumors
- solubility: more water soluble
- doxorubicin cardioprotection [1]: shown promise

SMILES: CC(=O)N[C@@H](CS)C(=O)O [N-acetyl cysteine]
- cardioprotection against doxorubicin-induced toxicity [2]: did not result in significant cardioprotection

SMILES: COc1cccc2c1C(=O)c1c(O)c3c(c(O)c1C2=O)C[C@@](O)(C(=O)CO)C[C@@H]3O[C@H]1C[C@H](N)[C@H](O)[C@H](C)O1 [doxorubicin]
- cardiac glutathione peroxidase activity [8]: directly depresses cardiac glutathione peroxidase activity
- risk for development of cardiotoxicity ([9]; accumulated doses greater than 450 mg/m^2): greater than 10%
- alopecia (hair loss) ([9]; human, in vivo): occurs frequently
- nausea and vomiting ([9]; human, in vivo): occur regularly
- peak of myelosuppression ([9]; human, in vivo): approximately 14±2 days
- recovery from myelosuppression ([9]; human, in vivo): 15 to 18 days
- cardiotoxicity on prolonged infusion ([9]; infusion over extended periods, e.g., 96 hours): small but measurable decrease in cardiotoxicity
- patients developing unacceptable clinical toxicity ([9]; total cumulative dose 450 mg/m^2): 5-10%
- animals with myocardial lesions (myocardial lesions): eight of nine
